Data set [1] deals with HeLa cells. Put plainly: Induction of cell death of human cancer cells, microscopy and Giemsa staining. The class given is cell-based. The note with it: 20 μM. As for the experimental part:
Further, the induction of cell death of the human cancer cells by the oligo 3 was examined. Specifically, 3,000 HeLa cells were seeded in a slide chamber. After culture for 24 hours, the culture solution was exchanged with a culture solution containing the oligo 3 at a concentration of 20 μM. […] Furthermore, 24 hours after addition of the oligo 3, the cells were washed with phosphate buffered saline (PBS) and then subjected to Giemsa staining to determine the numbers of living cells and dead cells, and the survival ratio of the cells (%) was determined from the obtained numbers of the cells. Here, the oligo 5 was used additionally as a control.

Data set [2] is described as follows: Toxicity in mice after intravenous administration (body weight, symptoms). The class given is in vivo. The conditions noted are these: female mice, 20 μg per g of the body weight. Here is the method:
The toxicity of the oligo 3 was examined. Specifically, the oligo 3 was dissolved in a physiological saline so as to have a concentration of 1 mg/mL and administered intravenously into female mice (5-week-old) in a dose of 20 μg per g of the body weight. On the day of administration (Day 0) and 2, 5, 10, 12 and 14 days after the administration, the weight of each mouse was determined.
FIG. 6 is a graph showing the influence of the oligo 3 on increase of the body weight of the mouse in the case of intravenous administration in a dose of 20 μg/(body weight) g. In the graph, each datum is shown in mean±SE. Here, the data were obtained by using 7 mice for the oligo 3 and 6 mice for the control, respectively.

Data set [3] deals with HeLa cells. Put plainly: Influence on growth of HeLa human cancer cells, modified MTT method (WST-1 + 1-methoxy PMS). The class given is cell-based. As for the experimental part:
The influence of each oligo on cell growth was examined. Specifically, HeLa cells, which are human cancer cells in a DMEM medium containing 10% heat-inactivated fetal calf serum (FCS), were seeded at a density of 1500 cells/well in a 96-well plate. After culture for 24 hours, the culture solution was exchanged with a culture solution containing each oligo at a concentration of 10 μM and 1% FCS. The cells were cultured at 37° C. in the presence of CO2. Thereafter, the ratio of living cells [survival ratio of cells (%)] was examined over 4 days at 24-hour intervals (absorbance: 450 to 650 nm) by a modified MTT method (WST-1+1-methoxy PMS) using a cell counting kit (manufactured by DOJINDO). Here, a culture solution exchanged with a culture solution not containing any oligo was used as a control (this applies hereinafter).
Then, an experiment was conducted in a similar manner, setting the concentration of the oligo 3 in the culture solutions at 2.5, 5, 10 and 20 μM respectively, to examine the relationship between the inhibition of growth of human cancer cells and the concentration.
For orientation: Tetrazolium assays rely on reduction of a dye to a coloured formazan, in cell work by metabolically active cells.

Data set [4] has as its system HeLa cells. Nature of the data set: Influence on DNA synthesis of cells, incorporation of [3H]-methylthymidine. The class given is cell-based, human. The note with it: for incorporation ratio of [3H]-methylthymidine into the human cancer cells to the control: HeLa, 0.1% FCS, 24 hours. Here is the method:
The influence of each oligo on DNA synthesis of cells was examined by observing the incorporation of [^3H]-methylthymidine into cells. Specifically, the cells were cultured for 24 hours in the same manner as described above, and then the culture solution was exchanged with a culture solution containing each oligo at a concentration of 5, 10 or 20 μM and 0.1% FCS. After 18 hours, 1 μCi/mL [^3H]-methylthymidine was added to the culture solution, and the cells were cultured for another 6 hours. After culture, the specific radioactivity of the cells after predetermined treatment was determined with a liquid scintillation counter.

Take “oligo 3: phosphorothioate antisense DNA oligonucleotide CCTCA, to positions 47-51 of 7SL RNA of SRP (SEQ ID NO: 1) (DNA, all phosphorothioate, methylation of C not given here)”: the “survival ratio of the cells (living vs dead cells, Giemsa staining)” value in data set [1] (24 hours after addition) was found to be 30.8%. For the same substance, in data set [1] (about 18 hours after addition), the “microscopic observation of cultured cells” value is reported as “a process of from shrinkage of cells to cell death was observed”. The “generation of symptoms versus control” value in data set [2] was “not recognized”. The toxicity result in data set [2] is given as “does not exhibit toxicity particularly”. Moreover, the “influence on increase of the body weight versus control” value in data set [2] (Day 0 to 14) is “no difference between the oligo 3 and the control”. In data set [3] (HeLa, 10 μM, over 4 days), the “inhibitory effect on growth of the human cancer cells, compared among oligos 1 to 5” value was “highest inhibitory effect”. In data set [3] (HeLa, 2.5, 5, 10 and 20 μM), the “concentration dependence of inhibition of growth of human cancer cells” value was “increased in proportion to the concentration”. The “survival ratio of the cells to the control” value in data set [3] (HeLa, concentration series 2.5, 5, 10 and 20 μM (concentration of these values not given), Day 1) was 44.4%; in data set [3] (HeLa, concentration series 2.5, 5, 10 and 20 μM (concentration of these values not given), Day 2) it was 45.1%; in data set [3] (HeLa, concentration series 2.5, 5, 10 and 20 μM (concentration of these values not given), Day 3), 55.5%; in data set [3] (HeLa, concentration series 2.5, 5, 10 and 20 μM (concentration of these values not given), Day 4) it was 63.8%; in data set [3] (HeLa, oligo 10 μM, 1% FCS, Day 1), 49.6%; in data set [3] (HeLa, oligo 10 μM, 1% FCS, Day 2) it was 62.7%. In addition, the “survival ratio of the cells to the control” value in data set [3] (HeLa, oligo 10 μM, 1% FCS, Day 3) worked out at 71.6%; in data set [3] (HeLa, oligo 10 μM, 1% FCS, Day 4) it was 71.1%. In addition, in data set [4] (HeLa, 5, 10 or 20 μM), the “incorporation of [3H]-methylthymidine into the cells, compared among oligos 1 to 5” value was “suppressed to the lowest level”. The “incorporation ratio of [3H]-methylthymidine into the human cancer cells to the control” value came to 57.5% in data set [4] (oligo 5 μM), 32.0% in data set [4] (oligo 10 μM) and 16.6% in data set [4] (oligo 20 μM).

(Values after patent publication US7393951B2, “Antisense oligonucleotide having anticancerous activity” (Good Will Okinawa Co., Ltd., priority 2004, dated 2008).)
